Data from ChEMBL document CHEMBL1140067, “Synthesis, in vitro, and in vivo biological evaluation and molecular docking simulations of chiral alcohol and ether derivatives of the 1,5-diarylpyrrole scaffold as novel anti-inflammatory and analgesic agents” (Bioorg Med Chem, 2008).

Assays:
[1] = tested on: Rattus norvegicus; assay: Antiinflammatory activity against carrageenan-induced paw edema in rat assessed as paw volume at 20 mg/kg, po administered 4 hrs post carrageenan challenge measured after 60 mins; format: functional
[2] = tested on: Mus musculus; assay: Analgesic activity against acetic acid-induced writhing in Swiss albino mouse assessed as number of writhes at 10 mg/kg, po administered 30 mins before test; format: functional
[3] = tested on: Mus musculus; assay: Analgesic activity against acetic acid-induced writhing in Swiss albino mouse assessed as number of writhes at 20 mg/kg, po administered 30 mins before test; format: functional
[4] = tested on: Mus musculus; assay: Analgesic activity against acetic acid-induced writhing in po dosed Swiss albino mouse assessed as number of writhes administered 30 mins before test; format: functional, organism-based
[5] = molecular target: T1, Prostaglandin G/H synthase 1 (Mus musculus, UniProt P22437); assay: Inhibition of COX1 in arachidonic acid-stimulated mouse J774 cells assessed as inhibition of PGE2 production after 15 mins by radioimmunoassay; format: cell-based
T1 sequence (P22437 whole entry): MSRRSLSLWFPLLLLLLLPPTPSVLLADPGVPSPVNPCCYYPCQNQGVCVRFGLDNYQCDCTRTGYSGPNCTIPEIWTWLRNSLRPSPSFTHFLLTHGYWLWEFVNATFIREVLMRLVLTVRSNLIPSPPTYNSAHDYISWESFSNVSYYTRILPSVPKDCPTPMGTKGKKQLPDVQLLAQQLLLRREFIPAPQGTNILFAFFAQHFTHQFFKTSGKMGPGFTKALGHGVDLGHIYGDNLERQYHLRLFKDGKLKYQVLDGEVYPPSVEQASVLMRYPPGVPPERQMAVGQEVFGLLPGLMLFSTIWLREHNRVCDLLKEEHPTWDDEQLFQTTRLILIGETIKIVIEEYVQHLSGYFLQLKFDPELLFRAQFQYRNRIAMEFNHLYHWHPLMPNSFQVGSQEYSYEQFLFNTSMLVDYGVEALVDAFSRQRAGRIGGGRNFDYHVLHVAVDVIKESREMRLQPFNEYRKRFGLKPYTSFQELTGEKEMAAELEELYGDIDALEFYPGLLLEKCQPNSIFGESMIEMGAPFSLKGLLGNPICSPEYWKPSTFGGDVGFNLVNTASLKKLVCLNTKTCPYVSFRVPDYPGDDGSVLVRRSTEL

[6] = tested on: J774; assay: Selectivity ratio of IC50 for COX1 in arachidonic acid-stimulated mouse J774 cells to IC50 for COX2 in LPS-stimulated mouse J774 cells; format: cell-based
[7] = molecular target: Prostaglandin G/H synthase 1 (Homo sapiens, UniProt P23219); assay: Inhibition of COX1 in human whole blood assessed as inhibition of LPS-stimulated PGE2 production by radioimmunoassay; format: tissue-based
Prostaglandin G/H synthase 1 (Homo sapiens, UniProt P23219), sequence (P23219 whole entry): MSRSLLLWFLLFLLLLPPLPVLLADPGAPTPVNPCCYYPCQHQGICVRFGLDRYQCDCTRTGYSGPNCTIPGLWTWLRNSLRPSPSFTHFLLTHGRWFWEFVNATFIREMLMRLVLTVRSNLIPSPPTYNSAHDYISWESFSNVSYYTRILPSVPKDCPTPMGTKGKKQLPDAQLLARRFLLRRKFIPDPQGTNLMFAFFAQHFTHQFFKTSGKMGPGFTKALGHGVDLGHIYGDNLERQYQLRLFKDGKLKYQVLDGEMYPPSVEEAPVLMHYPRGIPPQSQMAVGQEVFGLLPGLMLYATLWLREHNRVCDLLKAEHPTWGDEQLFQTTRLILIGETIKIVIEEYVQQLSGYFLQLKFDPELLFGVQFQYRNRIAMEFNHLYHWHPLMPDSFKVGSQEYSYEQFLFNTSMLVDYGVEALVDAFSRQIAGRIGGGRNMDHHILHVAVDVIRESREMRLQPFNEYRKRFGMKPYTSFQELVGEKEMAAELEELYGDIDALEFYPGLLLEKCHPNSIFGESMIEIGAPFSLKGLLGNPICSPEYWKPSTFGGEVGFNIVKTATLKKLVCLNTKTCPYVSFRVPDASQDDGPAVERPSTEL

[8] = molecular target: T2, Prostaglandin G/H synthase 2 (Homo sapiens, UniProt P35354); assay: Inhibition of COX2 in human whole blood assessed as inhibition of TXB2 production by radioimmunoassay; format: tissue-based
T2 sequence (P35354 whole entry): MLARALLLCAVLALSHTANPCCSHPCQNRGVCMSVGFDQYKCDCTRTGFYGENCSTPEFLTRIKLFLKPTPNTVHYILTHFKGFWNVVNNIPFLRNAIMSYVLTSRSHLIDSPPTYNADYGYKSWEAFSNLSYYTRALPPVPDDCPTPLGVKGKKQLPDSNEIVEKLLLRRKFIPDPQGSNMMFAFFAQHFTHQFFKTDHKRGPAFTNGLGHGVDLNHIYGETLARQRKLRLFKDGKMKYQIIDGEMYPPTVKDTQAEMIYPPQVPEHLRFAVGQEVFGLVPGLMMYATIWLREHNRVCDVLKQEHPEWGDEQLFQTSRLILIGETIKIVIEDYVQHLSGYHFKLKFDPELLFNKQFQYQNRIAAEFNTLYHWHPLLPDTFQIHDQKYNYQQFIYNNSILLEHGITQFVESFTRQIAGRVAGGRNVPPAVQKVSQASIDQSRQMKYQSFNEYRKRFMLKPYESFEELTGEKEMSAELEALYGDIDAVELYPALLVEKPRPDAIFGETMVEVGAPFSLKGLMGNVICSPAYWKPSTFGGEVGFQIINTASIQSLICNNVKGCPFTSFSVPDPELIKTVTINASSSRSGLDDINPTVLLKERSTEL

[9] = tested on: Rattus norvegicus; assay: Analgesic activity against carrageenan-induced hyperalgesia in rat assessed as paw pressure at 20 mg/kg, po after 30 mins; format: functional
[10] = tested on: Rattus norvegicus; assay: Analgesic activity against carrageenan-induced hyperalgesia in rat assessed as paw pressure at 20 mg/kg, po after 60 mins; format: functional
[11] = tested on: Rattus norvegicus; assay: Analgesic activity against carrageenan-induced hyperalgesia in rat assessed as paw pressure at 20 mg/kg, po after 120 mins; format: functional
[12] = molecular target: T3, Prostaglandin G/H synthase 2 (Mus musculus, UniProt Q05769)
T3 sequence (Q05769 whole entry): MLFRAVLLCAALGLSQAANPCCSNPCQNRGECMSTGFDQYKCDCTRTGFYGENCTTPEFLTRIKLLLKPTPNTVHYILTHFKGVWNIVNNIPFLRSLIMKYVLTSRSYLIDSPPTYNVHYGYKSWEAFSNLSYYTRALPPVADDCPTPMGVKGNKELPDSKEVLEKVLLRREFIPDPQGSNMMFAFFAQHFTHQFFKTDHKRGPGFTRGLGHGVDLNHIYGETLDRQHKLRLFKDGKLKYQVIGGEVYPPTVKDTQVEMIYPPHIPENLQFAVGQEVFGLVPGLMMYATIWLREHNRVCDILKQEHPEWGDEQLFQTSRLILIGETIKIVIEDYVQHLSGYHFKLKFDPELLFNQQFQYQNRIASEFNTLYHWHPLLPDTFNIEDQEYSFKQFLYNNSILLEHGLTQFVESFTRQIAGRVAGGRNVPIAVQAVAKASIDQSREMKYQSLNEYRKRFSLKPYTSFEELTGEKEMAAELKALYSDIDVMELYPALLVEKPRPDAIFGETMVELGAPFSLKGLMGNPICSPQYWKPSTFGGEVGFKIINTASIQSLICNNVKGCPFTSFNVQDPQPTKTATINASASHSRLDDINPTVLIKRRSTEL
Description: Inhibition of COX2 in LPS-stimulated mouse J774 cells assessed as inhibition of PGE2 production after 15 mins by radioimmunoassay

CCOC(=O)C(O)c1cc(-c2ccc(S(C)(=O)=O)cc2)n(-c2cccc(F)c2)c1C (racemic)
Activity [1]: 1.4 mL | Activity [2]: 26.3 | Activity [3]: 16.1 | Activity [4]: Dose-dependent effect | IC50 [5]: > 100000 nM | Ratio IC50 [6]: > 800 | IC50 [7]: 21300 nM | IC50 [8]: 3800 nM | Activity [9]: 54.8 g | Activity [10]: 45.2 g | Activity [11]: 47.5 g | IC50 [12]: 120 nM

CCOC(=O)C(O)c1cc(-c2ccc(S(C)(=O)=O)cc2)n(-c2ccccc2)c1C (racemic)
IC50 [5]: > 100000 nM

CCOC(=O)[C@H](OCC)c1cc(-c2ccc(S(C)(=O)=O)cc2)n(-c2ccccc2)c1C
IC50 [5]: > 100000 nM | Ratio IC50 [6]: > 700 | IC50 [12]: 140 nM

CCc1cccc2c3c([nH]c12)C(CC)(CC(=O)O)OCC3 (configuration not stated) [ETODOLAC]
IC50 [8]: 2000 nM

CCOC(=O)C(OCC)c1cc(-c2ccc(S(C)(=O)=O)cc2)n(-c2ccccc2)c1C (racemic)
IC50 [5]: > 100000 nM | Ratio IC50 [6]: > 800 | IC50 [12]: 180 nM

CCOC(=O)[C@@H](OCC)c1cc(-c2ccc(S(C)(=O)=O)cc2)n(-c2ccc(OC)cc2)c1C
IC50 [5]: > 100000 nM | Ratio IC50 [6]: > 700 | IC50 [12]: 140 nM

CCOC(=O)[C@H](OCC)c1cc(-c2ccc(S(C)(=O)=O)cc2)n(-c2ccc(OC)cc2)c1C
IC50 [5]: > 100000 nM | Ratio IC50 [6]: > 1100 | IC50 [12]: 90 nM

CCOC(=O)[C@@H](O)c1cc(-c2ccc(S(C)(=O)=O)cc2)n(-c2cccc(F)c2)c1C
IC50 [5]: > 100000 nM | Ratio IC50 [6]: > 90 | IC50 [12]: 1100 nM

CCOC(=O)[C@@H](O)c1cc(-c2ccc(S(C)(=O)=O)cc2)n(-c2ccc(OC)cc2)c1C
IC50 [5]: > 100000 nM

CCOC(=O)[C@@H](OCC)c1cc(-c2ccc(S(C)(=O)=O)cc2)n(-c2cccc(F)c2)c1C
IC50 [5]: > 100000 nM | Ratio IC50 [6]: > 400 | IC50 [12]: 250 nM

CCOC(=O)[C@H](O)c1cc(-c2ccc(S(C)(=O)=O)cc2)n(-c2ccc(OC)cc2)c1C
IC50 [5]: > 100000 nM

CCOC(=O)C(OCC)c1cc(-c2ccc(S(C)(=O)=O)cc2)n(-c2cccc(F)c2)c1C (racemic)
IC50 [5]: > 100000 nM | Ratio IC50 [6]: > 1000 | IC50 [12]: 100 nM

CCOC(=O)[C@@H](O)c1cc(-c2ccc(S(C)(=O)=O)cc2)n(-c2ccccc2)c1C
IC50 [5]: > 100000 nM

CCOC(=O)C(O)c1cc(-c2ccc(S(C)(=O)=O)cc2)n(-c2ccc(OC)cc2)c1C (racemic)
IC50 [5]: > 100000 nM

CCOC(=O)[C@H](O)c1cc(-c2ccc(S(C)(=O)=O)cc2)n(-c2ccccc2)c1C
IC50 [5]: > 100000 nM

CCOC(=O)[C@@H](OCC)c1cc(-c2ccc(S(C)(=O)=O)cc2)n(-c2ccccc2)c1C
IC50 [5]: > 100000 nM | Ratio IC50 [6]: > 1000 | IC50 [12]: 100 nM

CCOC(=O)C(OCC)c1cc(-c2ccc(S(C)(=O)=O)cc2)n(-c2ccc(OC)cc2)c1C (racemic)
IC50 [5]: > 100000 nM | Ratio IC50 [6]: > 800 | IC50 [12]: 130 nM

CCOC(=O)[C@H](OCC)c1cc(-c2ccc(S(C)(=O)=O)cc2)n(-c2cccc(F)c2)c1C
IC50 [5]: > 100000 nM | Ratio IC50 [6]: > 100 | IC50 [12]: 810 nM

CCOC(=O)[C@H](O)c1cc(-c2ccc(S(C)(=O)=O)cc2)n(-c2cccc(F)c2)c1C
IC50 [5]: > 100000 nM | Ratio IC50 [6]: > 1300 | IC50 [12]: 75 nM
